# Assay results: patent publication US20130210846A1, “USE OF NOVEL PAN-CDK INHIBITORS FOR TREATING TUMORS” (BAYER INTELLECTUAL PROPERTY GMBH, priority 2010, published 2013)
# Tests used:
# MDA-MB 231 = experiment: Proliferation assay MDA-MB 231; assay type: cell-based; conditions: Homo sapiens, 96 h; MDA-MB 231, estrogen receptor-negative mamma carcinoma; 4 days, crystal violet
# Protocol: (§1) Cultivated human tumor cells (originally obtained from ATCC, HeLa-MaTu and HeLa-MaTu-ADR, originally obtained from Epo GmbH, Berlin, Germany) were plated at a density of 1000 to 5000 cells/measuring point, depending on the growth rate of the cell line, in a 96-well multititer plate in 200 μl of growth medium (DMEM/HAMS F12, 2 mM L-glutamine, 10% fetal calf serum). After 24 hours the cells of one plate (zero-point plate) were stained with crystal violet (see below), whereas the medium of the other plates was replaced with fresh culture medium (200 μl), to which the test substances had been added at various concentrations (0 μM, and in the range 0.01-30 μM; the final concentration of the solvent dimethyl sulfoxide was 0.5%). The cells were incubated for 4 days in the presence of the test substances. Cellular proliferation was determined by staining the cells with crystal violet: the cells were fixed by adding 20 μl/measuring point of an 11% glutaraldehyde solution for 15 min at room temperature. […] The extinction was determined photometrically at a wavelength of 595 nm. The percentage change in cell growth was calculated by standardization of the measured values to the extinction values of the zero-point plate (=0%) and the extinction of the untreated (0 μM) cells (=100%). […] The IC50 values were determined by means of a 4-parameter fit using the company's own software. […]
# OVCAR-8 = experiment: Proliferation assay OVCAR-8; assay type: cell-based; conditions: Homo sapiens, 96 h; OVCAR-8, ovarial carcinoma; 4 days, crystal violet
# Protocol: as §1
# NCI-H69 = experiment: Proliferation assay NCI-H69; assay type: cell-based; conditions: Homo sapiens, 96 h; NCI-H69, small-cell bronchial carcinoma; 4 days, crystal violet
# Protocol: as §1
# [1] = tested on: NCI-H146 human small-cell lung tumor cells; experiment: NCI-H146 human small-cell lung tumor model; assay type: in vivo, female NMRI nude mice
# Excerpt: (§2) Tumor cells grown in cell culture were implanted subcutaneously in the flank of female or male NMRI nude mice. The treatment was started as soon as the tumors had grown to a size of approx. 20 mm^2 The study was ended as soon as the tumors in one of the groups reached a size of approx. 150 mm^2.
# (§3) Vehicle group: treatment with solubilizer (40% PEG400/60% water)
# (§4) The studies were designed for determining the initial response of the human tumor model to the treatment with the Exemplary compound 2-SI-2. Tumor growth inhibition in percent (TGI) was either calculated at the end of the studies from the tumor weights (TGITW) using the formula 100×[1−(tumor weight of the treatment group/tumor weight of the vehicle group)], or on the day the vehicle group had to be ended from the tumor areas (TGITA) using the formula 100×[1−(tumor area of the treatment group on the day of the measurement−tumor area of the treatment group prior to treatment)/(tumor area of the vehicle group on the day of the measurement−tumor area of the vehicle group prior to treatment)]. In the case of a tumor growth inhibition of more than 50%, the treatment was considered to have been effective.
# Efficacy in the NCI-H146 human small-cell lung tumor model.
# NCI-H146 human small-cell lung tumor cells implanted into female NMRI nude mice. […]
# [2] = tested on: MDA-MB231 human breast tumor cells; experiment: MDA-MB231 human breast tumor model; assay type: in vivo, female NMRI nude mice
# Excerpt: as §2, §3, §4
# Efficacy in the MDA-MB231 human breast tumor model MDA-MB231.
# MDA-MB231 human breast tumor cells implanted into female NMRI nude mice.
# • a) 0.20 mg/ml of Example 2-SI-2 in 40% (v/v) PEG 400 in water • b) 0.25 mg/ml of Example 2-SI-2 in 40% (v/v) PEG 400 in water • c) 0.15 mg/ml of Example 2-SI-2 in 40% (v/v) PEG 400 in water • d) 0.17 mg/ml of Example 2-SI-2 in 40% (v/v) PEG 400 in water
# • a) 2.0 mg/kg (6.0 mg/m^2), 1× per day. • b) 2.5 mg/kg (7.5 mg/m^2), 2× per day on 2 successive days, followed by 5 treatment-free days. • c) 1.5 mg/kg (4.5 mg/m^2), 2× per day on 3 successive days, followed by 4 treatment-free days. • d) 1.7 mg/kg (5.1 mg/m^2), 2× per day on 3 successive days, followed by 4 treatment-free days.
# [3] = tested on: A2780-Cis cisplatin-resistant human ovarial tumor cells; experiment: A2780-Cis human ovarial tumor model; assay type: in vivo, female NMRI nude mice
# Excerpt: as §2, §3, §4
# Efficacy in the A2780-Cis human ovarial tumor model.
# Efficacy in the A2780-Cis human ovarial tumor model A2780-Cis cisplatin-resistant human ovarial tumor cells implanted into female NMRI nude mice.
# • a) 0.20 mg/ml of Example 2-SI-2 in 40% (v/v) PEG 400 in water • b) 0.15 mg/ml of Example 2-SI-2 in 40% (v/v) PEG 400 in water • c) 0.17 mg/ml of Example 2-SI-2 in 40% (v/v) PEG 400 in water
# • a) 2.0 mg/kg (6.0 mg/m^2), 1× per day. • b) 1.5 mg/kg (4.5 mg/m^2), 2× per day on 3 successive days, followed by 4 treatment-free days. • c) 1.7 mg/kg (5.1 mg/m^2), 2× per day on 3 successive days, followed by 4 treatment-free days.
IC50 (MDA-MB 231) [nM],IC50 (OVCAR-8) [nM],IC50 (NCI-H69) [nM],Compound,TGITW (tumor growth inhibition from tumor weights) ([1]; NCI-H146; a) 2.0 mg/kg oral 1× per day) [%],"TGITW (tumor growth inhibition from tumor weights) ([1]; NCI-H146; b) 2.0 mg/kg oral 2× per day on 2 successive days, followed by 5 treatment-free days) [%]","TGITA (tumor growth inhibition from tumor areas, measured on the day the vehicle group was ended) ([2]; MDA-MB231; a) 2.0 mg/kg oral 1× per day) [%]","TGITA (tumor growth inhibition from tumor areas) ([2]; MDA-MB231; b) 2.5 mg/kg oral 2× per day on 2 successive days, followed by 5 treatment-free days) [%]","TGITA (tumor growth inhibition from tumor areas) ([2]; MDA-MB231; c) 1.5 mg/kg oral 2× per day on 3 successive days, followed by 4 treatment-free days) [%]","TGITA (tumor growth inhibition from tumor areas) ([2]; MDA-MB231; d) 1.7 mg/kg oral 2× per day on 3 successive days, followed by 4 treatment-free days) [%]",TGITW (tumor growth inhibition from tumor weights) ([3]; A2780-Cis; a) 2.0 mg/kg oral 1× per day) [%],"TGITW (tumor growth inhibition from tumor weights) ([3]; A2780-Cis; b) 1.5 mg/kg oral 2× per day on 3 successive days, followed by 4 treatment-free days) [%]","TGITW (tumor growth inhibition from tumor weights) ([3]; A2780-Cis; c) 1.7 mg/kg oral 2× per day on 3 successive days, followed by 4 treatment-free days) [%]"
16,14,37,"C[C@@H](O)[C@@H](C)Oc1nc(Nc2ccc(S(C)(=N)=O)cc2)ncc1C(F)(F)F (single isomer, unassigned) [Example 2-SI-2]",–,–,–,–,–,–,–,–,–
–,–,–,"C[C@@H](O)[C@@H](C)Oc1nc(Nc2ccc(S(C)(=N)=O)cc2)ncc1C(F)(F)F (mixture of isomers) [Example 2-SI-2, (RS)—S-(4-{[4-{[(1R,2R)-2-Hydroxy-1-methylpropyl]oxy}-5-(trifluoromethyl)pyrimidin-2-yl]-amino}phenyl)-S-methylsulfoximide]",95,82,92,76,70,70,85,88,92
